Assay results reported in patent publication US20230115350A1 (Cedilla Therapeutics, Inc., priority 2021, published 2023).

Key:
[1] = tested on: NCI-H226; test: 72H TEAD Proliferation Assay (Cell Titer-Glo 2.0); format: cell-based; settings: Homo sapiens, NCI-H226, 72 h, CTG 2.0, cell line not given
Procedure: The effect of TEAD inhibition on cell proliferation was assayed using Cell Titer Glo (CTG) 2.0 to measure response in mesothelioma cell lines NCI-H226 (ATCC, #CRL-5826) and NCI-H28 (ATCC, #CRL-5820).
The 72H TEAD Proliferation assay utilizes Cell Titer-Glo 2.0 (Promega, #G9243) to measure the proliferation of cells in the presence or absence of compound. Cell Titer-Glo 2.0 determines the amount of viable cells by quantifying ATP (an indication of metabolically active cells). It utilizes the conversion of Luciferin to Oxyluciferin and a luminescent signal with the use of ATP to report the quantity of viable cells in culture. Within cells that are continually growing, ATP is being synthesized to meet their metabolic demands, meanwhile the opposite is true for cells that are dying or slowing down their proliferation and either no longer using ATP or are using less, respectively. The NF2-deficient NCI-H226 has been genetically validated as a cell line that is sensitive to TEAD inhibition. The NF2-wild type NCI-H28 has been genetically validated as a cell line that is not sensitive to TEAD inhibition and grows independently of TEAD activity.
Compounds were screened against the responsive NCI-H226 cell line to assess the compounds' ability to inhibit TEAD and cell growth. Compounds were also screened against the non-responsive NCI-H28 cell line to ascertain whether the inhibition of cell growth was due to inhibition of the target TEAD or whether the inhibition was due to off-target cytotoxicity.
1) Assay ready plates (ARPs) were prepared by Echo acoustic liquid handler. For each compound, duplicate of 10-point half-log dilution series were dispensed in a 384-well microplate (Corning 3571).
5) NCI-H226 or NCI-H28 cells were harvested from culture in Assay Medium 1 and the multidrop Combi reagent dispenser was used to seed cells at 500 cells per 50 ul in each well of the ARPs and one Corning 3571 plate without compounds for Time 0 (TO) readout.
6) The TO plate was incubated for 2 hours at 37° C. with 5% CO2 to allow cells to settle, then the CTG Assay was performed.
7) All ARPs were incubated for 72 hours at 37° C. with 5% CO2, then the CTG Assay was performed for Time 72H (T72) readout.
8) CTG Assay: Bravo liquid handler (Agilent) was used to add 25 ul of CTG 2.0 to all columns of the plate except for Column 24, which was used to subtract out the background. After CTG addition, plates were placed on shaker at 800 RPM for 15 minutes at room temperature and kept in the dark. Luminescence was measured using EnVision multilabel plate reader with ultra-sensitive detection module.
9) Data Analysis: First background luminescence (no CTG wells) was subtracted from luminescence reading of all wells, then TO luminescence was subtracted from T72 luminescence. To compare anti-proliferative effect of compounds, GI50 was obtained by fitting dose response curves with nonlinear regression curve fit.

[2] = target: TEAD1 protein (YAP Binding Domain) (Homo sapiens, UniProt P28347); test: TEAD1 lipid pocket compound displacement assay (TR-FRET, Cy5-probe); settings: 60 minutes incubation at room temperature; TR-FRET 665 nm/620 nm; read-out: CDA IC50
Sequence of TEAD1 protein (YAP Binding Domain) (P28347 209-426 limits assumed): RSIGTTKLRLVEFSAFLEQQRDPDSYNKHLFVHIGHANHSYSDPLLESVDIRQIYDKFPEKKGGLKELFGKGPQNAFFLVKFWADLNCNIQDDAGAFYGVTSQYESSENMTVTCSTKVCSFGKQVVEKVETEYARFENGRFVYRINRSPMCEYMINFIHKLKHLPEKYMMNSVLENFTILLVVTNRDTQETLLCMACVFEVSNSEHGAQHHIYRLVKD
Procedure: Compound Displacement Assay.
A TEAD1 lipid pocket displacement assay was carried out according to the following protocol. Purified His-tagged TEAD1 protein (YAP Binding Domain) was pre-mixed with a Cy5-probe (Cy5-conjugated to a small molecule that binds in the TEAD1 lipid pocket) and Terbium-labeled anti-His antibody (Cisbio Cat 61HI2TLB). The binding of the Cy5-probe to anti-His-Tb/His-tag TEAD1 complex yielded a TR-FRET signal. […] After 60 minutes incubation at room temperature of compounds with the His-TEAD1/anti-His-Tb/Cy5-probe complex, the plate was read on a plate reader (BMG ClarioStar Cat 430-1300) using TR-FRET mode with wavelengths of 665 nm/620 nm. The potency of compounds as TEAD1 lipid pocket binders was determined by IC50 value generated using a non-linear 4 parameter curve fit.

| Structure (SMILES) | GI50 [1] [nM] | IC50 [2] [nM] |
| --- | --- | --- |
| C=CC(=O)Nc1ccc(OCC2CCC(F)(F)CC2)c(C#N)c1 [Compound 50, N-(3-cyano-4-((4,4-difluorocyclohexyl)methoxy)phenyl)acrylamide] | ≤ 250 | ≤ 250 |
| C=CC(=O)Nc1ccc(OCc2cccc(F)c2)c(C)c1 [Compound 51, N-(4-((3-fluorobenzyl)oxy)-3-methylphenyl)acrylamide] | > 3000 | 250 to 500 |
| C=CC(=O)Nc1ccc(OCC2CCOCC2)c(F)c1 [Compound 54, N-(3-fluoro-4-((tetrahydro-2H-pyran-4-yl)methoxy)phenyl)acrylamide] | 1000 to 3000 | > 2000 |
| C=CC(=O)Nc1ccc(OCC2CCCCC2)c(F)c1 [Compound 55, N-(4-(cyclohexylmethoxy)-3-fluorophenyl)acrylamide] | 250 to 1000 | ≤ 250 |
| C=CC(=O)Nc1ccc(OCc2csc3ccccc23)c(F)c1 [Compound 60, N-(4-(benzo[b]thiophen-3-ylmethoxy)-3-fluorophenyl)acrylamide] | > 3000 | 500 to 2000 |
| C=CC(=O)Nc1ccc(OCc2ccc(C#N)s2)c(F)c1 [Compound 63, N-(4-((5-cyanothiophen-2-yl)methoxy)-3-fluorophenyl)acrylamide] | 1000 to 3000 | 500 to 2000 |
| C=CC(=O)Nc1ccc(OCc2cncc(C)c2)c(F)c1 [Compound 71, N-(3-fluoro-4-((5-methylpyridin-3-yl)methoxy)phenyl)acrylamide] | > 3000 | > 2000 |
| C=CC(=O)Nc1ccc(OCc2ccc(Cl)nc2)c(F)c1 [Compound 72, N-(4-((6-chloropyridin-3-yl)methoxy)-3-fluorophenyl)acrylamide] | > 3000 | 500 to 2000 |
| C=CC(=O)Nc1ccc(OCc2cccnc2Br)c(F)c1 [Compound 74, N-(4-((2-bromopyridin-3-yl)methoxy)-3-fluorophenyl)acrylamide] | > 3000 | > 2000 |
| C=CC(=O)Nc1ccc(OCc2cccnc2Cl)c(F)c1 [Compound 76, N-(4-((2-chloropyridin-3-yl)methoxy)-3-fluorophenyl)acrylamide] | > 3000 | > 2000 |
| C=CC(=O)Nc1ccc(OCc2cc(F)ccc2Cl)c(F)c1 [Compound 78, N-(4-((2-chloro-5-fluorobenzyl)oxy)-3-fluorophenyl)acrylamide] | > 3000 | 500 to 2000 |
| C=CC(=O)Nc1ccc(OCc2cccc(F)c2Cl)c(F)c1 [Compound 83, N-(4-((2-chloro-3-fluorobenzyl)oxy)-3-fluorophenyl)acrylamide] | 250 to 1000 | ≤ 250 |
| C=CC(=O)Nc1ccc(OCc2ccc(F)cc2Cl)c(F)c1 [Compound 84, N-(4-((2-chloro-4-fluorobenzyl)oxy)-3-fluorophenyl)acrylamide] | 1000 to 3000 | 500 to 2000 |
| C=CC(=O)Nc1ccc(OCC2CCCC(C(F)(F)F)C2)c(F)c1 (centres unmarked) [Compound 91, N-(3-fluoro-4-((3-(trifluoromethyl)cyclohexyl)methoxy)phenyl)acrylamide] | 250 to 1000 | ≤ 250 |
| C=CC(=O)Nc1ccc(OCc2ccc(F)c(F)c2)c(F)c1 [Compound 96, N-(4-((3,4-difluorobenzyl)oxy)-3-fluorophenyl)acrylamide] | 250 to 1000 | ≤ 250 |
| C=CC(=O)Nc1ccc(OCc2cnc(C(F)(F)F)nc2)c(F)c1 [Compound 98, N-(3-fluoro-4-((2-(trifluoromethyl)pyrimidin-5-yl)methoxy)phenyl)acrylamide] | 1000 to 3000 | > 2000 |
| C=CC(=O)Nc1ccc(OCc2cccc(Cl)c2F)c(F)c1 [Compound 99, N-(4-((3-chloro-2-fluorobenzyl)oxy)-3-fluorophenyl)acrylamide] | > 3000 | ≤ 250 |

| Structure (SMILES) | GI50 [1] [nM] | IC50 [2] [nM] |
| --- | --- | --- |
| C=CC(=O)Nc1ccc(OCc2cccc(F)c2)c(F)c1 [Compound 100, N-(3-fluoro-4-((3-fluorobenzyl)oxy)phenyl)acrylamide] | > 3000 | 250 to 500 |
| C=CC(=O)Nc1ccc(NCc2cccc(F)c2)c(F)c1 [Compound 101, N-(3-fluoro-4-((3-fluorobenzyl)amino)phenyl)acrylamide] | 1000 to 3000 | 500 to 2000 |
| C=CC(=O)Nc1ccc(OCCC(F)(F)F)c(F)c1 [Compound 103, N-(3-fluoro-4-(3,3,3-trifluoropropoxy)phenyl)acrylamide] | 1000 to 3000 | > 2000 |
| C=CC(=O)Nc1ccc(OCc2cncc(C(F)(F)F)c2)c(F)c1 [Compound 104, N-(3-fluoro-4-((5-(trifluoromethyl)pyridin-3-yl)methoxy)phenyl)acrylamide] | 250 to 1000 | 250 to 500 |
| C=CC(=O)Nc1ccc(OC(C)c2cccc(C(F)(F)F)c2)c(F)c1 (centres unmarked) [Compound 105, N-(3-fluoro-4-(1-(3-(trifluoromethyl)phenyl)ethoxy)phenyl)acrylamide] | 250 to 1000 | ≤ 250 |
| C=CC(=O)Nc1ccc(Oc2cccc(F)c2)c(F)c1 [Compound 106, N-(3-fluoro-4-(3-fluorophenoxy)phenyl)acrylamide] | > 3000 | ≤ 250 |
| C=CC(=O)Nc1ccc(Oc2ccc(F)cc2)c(F)c1 [Compound 107, N-(3-fluoro-4-(4-fluorophenoxy)phenyl)acrylamide] | 250 to 1000 | ≤ 250 |
| C=CC(=O)Nc1ccc(Nc2ccc(F)cc2)c(F)c1 [Compound 108, N-(3-fluoro-4-((4-fluorophenyl)amino)phenyl)acrylamide] | 250 to 1000 | > 2000 |
| C=CC(=O)Nc1ccc(NCC2CCC(F)(F)CC2)c(F)c1 [Compound 109, N-(4-(((4,4-difluorocyclohexyl)methyl)amino)-3-fluorophenyl)acrylamide] | 250 to 1000 | 250 to 500 |
| C=CC(=O)Nc1ccc(Oc2cccc(C(C)(C)C)c2)c(F)c1 [Compound 110, N-(4-(3-(tert-butyl)phenoxy)-3-fluorophenyl)acrylamide] | 1000 to 3000 | 250 to 500 |
| C=CC(=O)Nc1ccc(Oc2ccc(C(C)(C)C)cc2)c(F)c1 [Compound 111, N-(4-(4-(tert-butyl)phenoxy)-3-fluorophenyl)acrylamide] | 250 to 1000 | ≤ 250 |
| C=CC(=O)Nc1ccc(Oc2ccccc2)c(F)c1 [Compound 112, N-(3-fluoro-4-phenoxyphenyl)acrylamide] | > 3000 | 250 to 500 |
| C=CC(=O)Nc1ccc(Oc2cccc(C)c2)c(F)c1 [Compound 113, N-(3-fluoro-4-(m-tolyloxy)phenyl)acrylamide] | 1000 to 3000 | ≤ 250 |
| C=CC(=O)Nc1ccc(Oc2ccc(C)cc2)c(F)c1 [Compound 114, N-(3-fluoro-4-(p-tolyloxy)phenyl)acrylamide] | > 3000 | ≤ 250 |
| C=CC(=O)Nc1ccc(OCc2cccc(C(F)(F)F)n2)c(F)c1 [Compound 115, N-(3-fluoro-4-((6-(trifluoromethyl)pyridin-2-yl)methoxy)phenyl)acrylamide] | ≤ 250 | 250 to 500 |
| C=CC(=O)Nc1ccc(OCc2ccnc(C(F)(F)F)c2)c(F)c1 [Compound 116, N-(3-fluoro-4-((2-(trifluoromethyl)pyridin-4-yl)methoxy)phenyl)acrylamide] | 250 to 1000 | 250 to 500 |
| C=CC(=O)Nc1ccc(OCc2cc(C(F)(F)F)ccn2)c(F)c1 [Compound 117, N-(3-fluoro-4-((4-(trifluoromethyl)pyridin-2-yl)methoxy)phenyl)acrylamide] | 250 to 1000 | 250 to 500 |
